Consider one compound from paper PMC8462848, “Quinazolin-4(3H)-one based potential multiple tyrosine kinase inhibitors with excellent cytotoxicity” (Journal of Enzyme Inhibition and Medicinal Chemistry, 2021).

Each structure is given as a SMILES string.

T3 sequence (P04626 23-1255): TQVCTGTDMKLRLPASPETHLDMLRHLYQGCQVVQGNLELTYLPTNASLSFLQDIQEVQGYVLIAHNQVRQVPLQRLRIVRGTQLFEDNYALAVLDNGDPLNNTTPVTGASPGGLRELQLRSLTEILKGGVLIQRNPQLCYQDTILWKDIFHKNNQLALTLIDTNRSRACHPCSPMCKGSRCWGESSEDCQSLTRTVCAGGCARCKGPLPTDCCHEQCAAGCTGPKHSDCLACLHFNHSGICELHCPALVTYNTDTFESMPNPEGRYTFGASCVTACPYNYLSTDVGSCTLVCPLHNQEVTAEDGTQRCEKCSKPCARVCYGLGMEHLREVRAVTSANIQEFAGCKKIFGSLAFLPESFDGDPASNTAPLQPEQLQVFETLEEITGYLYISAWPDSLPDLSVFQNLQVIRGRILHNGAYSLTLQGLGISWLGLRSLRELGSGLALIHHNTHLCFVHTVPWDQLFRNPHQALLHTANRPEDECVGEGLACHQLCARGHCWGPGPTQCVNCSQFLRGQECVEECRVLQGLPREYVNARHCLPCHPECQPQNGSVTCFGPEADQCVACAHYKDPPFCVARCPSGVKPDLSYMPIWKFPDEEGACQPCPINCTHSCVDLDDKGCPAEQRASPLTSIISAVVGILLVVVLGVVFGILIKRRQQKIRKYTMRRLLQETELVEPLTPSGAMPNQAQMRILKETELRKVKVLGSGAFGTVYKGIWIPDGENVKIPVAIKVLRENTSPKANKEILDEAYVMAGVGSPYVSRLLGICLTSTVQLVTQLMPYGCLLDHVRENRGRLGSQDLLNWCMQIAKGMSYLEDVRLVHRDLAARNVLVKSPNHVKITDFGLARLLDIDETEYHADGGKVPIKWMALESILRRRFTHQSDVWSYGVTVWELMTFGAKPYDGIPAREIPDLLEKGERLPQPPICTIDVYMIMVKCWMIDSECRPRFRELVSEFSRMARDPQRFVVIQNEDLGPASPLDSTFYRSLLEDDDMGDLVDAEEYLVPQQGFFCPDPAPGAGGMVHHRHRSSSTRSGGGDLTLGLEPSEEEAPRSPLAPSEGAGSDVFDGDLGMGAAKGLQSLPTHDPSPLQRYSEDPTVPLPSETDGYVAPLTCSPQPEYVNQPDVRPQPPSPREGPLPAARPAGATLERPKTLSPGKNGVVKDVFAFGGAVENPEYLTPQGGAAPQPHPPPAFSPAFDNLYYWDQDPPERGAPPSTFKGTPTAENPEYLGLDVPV
T4 sequence (P00533 25-1210): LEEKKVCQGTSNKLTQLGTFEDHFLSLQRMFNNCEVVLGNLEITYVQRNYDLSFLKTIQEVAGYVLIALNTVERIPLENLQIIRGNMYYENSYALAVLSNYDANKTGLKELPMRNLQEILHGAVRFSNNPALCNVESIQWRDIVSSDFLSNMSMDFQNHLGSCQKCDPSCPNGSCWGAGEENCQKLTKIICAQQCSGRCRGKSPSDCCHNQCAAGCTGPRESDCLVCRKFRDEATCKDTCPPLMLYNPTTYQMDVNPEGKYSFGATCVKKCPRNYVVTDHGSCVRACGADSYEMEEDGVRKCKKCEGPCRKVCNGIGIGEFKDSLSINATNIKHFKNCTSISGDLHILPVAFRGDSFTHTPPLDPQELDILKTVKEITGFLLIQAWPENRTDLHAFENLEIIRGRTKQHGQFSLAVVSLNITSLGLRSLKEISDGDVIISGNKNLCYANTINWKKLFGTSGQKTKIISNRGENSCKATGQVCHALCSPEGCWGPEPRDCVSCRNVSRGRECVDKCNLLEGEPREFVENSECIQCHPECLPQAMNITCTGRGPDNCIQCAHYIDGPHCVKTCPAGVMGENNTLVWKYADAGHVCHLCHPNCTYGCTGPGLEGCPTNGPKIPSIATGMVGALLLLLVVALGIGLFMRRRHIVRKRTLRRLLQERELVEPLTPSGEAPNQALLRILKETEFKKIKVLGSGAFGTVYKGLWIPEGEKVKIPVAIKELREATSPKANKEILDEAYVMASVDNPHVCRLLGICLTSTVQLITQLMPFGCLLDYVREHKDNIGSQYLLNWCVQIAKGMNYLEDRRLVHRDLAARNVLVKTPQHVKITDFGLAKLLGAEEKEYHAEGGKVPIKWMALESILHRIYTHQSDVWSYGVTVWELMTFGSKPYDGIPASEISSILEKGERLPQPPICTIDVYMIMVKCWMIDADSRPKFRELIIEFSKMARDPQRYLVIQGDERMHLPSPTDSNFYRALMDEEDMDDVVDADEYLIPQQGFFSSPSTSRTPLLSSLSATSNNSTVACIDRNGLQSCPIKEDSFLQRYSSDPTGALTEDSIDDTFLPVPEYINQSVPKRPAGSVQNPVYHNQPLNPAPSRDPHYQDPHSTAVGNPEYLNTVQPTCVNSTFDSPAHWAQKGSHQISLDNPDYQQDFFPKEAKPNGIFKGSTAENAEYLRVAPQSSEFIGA

One data set has as its system MCF7 (human breast adenocarcinoma) cells. In words: MTT cytotoxicity assay, MCF7. It is filed as cell-based. The note with it: Homo sapiens, MCF7, mean ± SD of triplicate. As to the method:
(§1) The cytotoxicity of the synthesised quinazolin-4(3H)-ones was evaluated by MTT assay, as previously described. Two cancer cell lines, MCF7 (human breast adenocarcinoma) and A2780 (human ovary adenocarcinoma), were used in this study, which were obtained from the ATCC (Rockville, MD, USA). […] Additionally, compounds were prepared at the same medium to obtain serial dilutions (50, 25, […] and 0.1 µM). […] The media were aspirated, and the formazan crystals were solubilised by adding 150 µL DMSO. Absorbance was read on a multi-plate reader (BioRad) at […]. […] The data were obtained from triplicates and analysed using statistical software.
The compound `CCOC(=O)CSc1nc2c(F)cc(F)cc2c(=O)n1Cc1ccccc1` [2h, Ethyl 2-((3-benzyl-6,8-difluoro-4-oxo-3,4-dihydroquinazolin-2-yl)thio)acetate] returned an IC50 of 840 ± 160 nM.

The target of the next data set is T1, CDK2/CyclinA2 (Homo sapiens, UniProt P24941).
T1 construct: purchased #79599
Put plainly: CDK2 Assay Kit, Kinase-Glo MAX luminescence. It is filed as biochemical. Conditions: mean ± SD of triplicate.
Compound `CCOC(=O)CSc1nc2c(F)cc(F)cc2c(=O)n1Cc1ccccc1` [2h, Ethyl 2-((3-benzyl-6,8-difluoro-4-oxo-3,4-dihydroquinazolin-2-yl)thio)acetate] showed an IC50 of 318 ± 23 nM.

In a further data set the target is T2, VEGFR2 (Homo sapiens, UniProt P35968).
T2 construct: purchased #40325
T2 sequence (P35968 20-1356): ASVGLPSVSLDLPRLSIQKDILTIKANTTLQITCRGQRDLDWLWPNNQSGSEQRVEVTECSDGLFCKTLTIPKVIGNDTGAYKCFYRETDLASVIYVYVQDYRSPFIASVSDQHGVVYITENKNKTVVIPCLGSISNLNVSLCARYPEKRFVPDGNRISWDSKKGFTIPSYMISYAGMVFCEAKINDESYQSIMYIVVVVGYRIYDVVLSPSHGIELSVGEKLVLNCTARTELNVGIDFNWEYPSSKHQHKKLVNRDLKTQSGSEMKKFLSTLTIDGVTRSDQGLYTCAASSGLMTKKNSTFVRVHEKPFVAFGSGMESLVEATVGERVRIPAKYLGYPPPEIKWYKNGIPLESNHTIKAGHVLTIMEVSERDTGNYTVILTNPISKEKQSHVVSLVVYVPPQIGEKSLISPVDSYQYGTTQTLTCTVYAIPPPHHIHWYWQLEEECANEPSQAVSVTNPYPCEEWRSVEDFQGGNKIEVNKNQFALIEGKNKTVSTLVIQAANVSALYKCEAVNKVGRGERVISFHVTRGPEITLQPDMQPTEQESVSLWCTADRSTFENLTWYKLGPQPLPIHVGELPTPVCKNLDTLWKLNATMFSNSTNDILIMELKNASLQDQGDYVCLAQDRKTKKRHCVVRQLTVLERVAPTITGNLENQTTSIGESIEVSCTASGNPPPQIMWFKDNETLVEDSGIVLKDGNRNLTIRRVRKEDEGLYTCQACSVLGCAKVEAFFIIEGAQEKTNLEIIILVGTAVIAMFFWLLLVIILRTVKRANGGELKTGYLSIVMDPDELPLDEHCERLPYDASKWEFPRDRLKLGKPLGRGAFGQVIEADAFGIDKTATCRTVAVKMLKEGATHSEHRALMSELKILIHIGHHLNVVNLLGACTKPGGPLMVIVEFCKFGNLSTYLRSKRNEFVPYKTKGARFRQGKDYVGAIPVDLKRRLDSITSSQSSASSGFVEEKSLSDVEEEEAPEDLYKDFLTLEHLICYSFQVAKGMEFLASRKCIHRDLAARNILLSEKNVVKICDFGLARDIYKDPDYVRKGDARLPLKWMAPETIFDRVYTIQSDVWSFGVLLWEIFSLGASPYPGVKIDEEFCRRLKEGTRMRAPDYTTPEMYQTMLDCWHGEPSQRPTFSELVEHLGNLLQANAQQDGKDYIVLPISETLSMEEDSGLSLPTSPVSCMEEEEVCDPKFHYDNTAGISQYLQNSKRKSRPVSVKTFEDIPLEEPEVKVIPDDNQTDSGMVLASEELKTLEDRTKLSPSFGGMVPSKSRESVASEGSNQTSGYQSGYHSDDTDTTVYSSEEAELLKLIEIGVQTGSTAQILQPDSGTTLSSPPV
In words: VEGFR2 kinase assay kit, Kinase-Glo MAX luminescence. It is filed as biochemical. Conditions: 0.01 µM; one experimental data; read-out: % Inhibition VEGFR-2. The protocol: (§2) The HER2/EGFR/VEGFR2 assay kit is designed to measure HER2/EGFR/VEGFR-2 inhibitory activity for screening and profiling applications, using Kinase-Glo® MAX as a detection reagent. The HER2/EGFR/VEGFR2 assay kit comes in a convenient 96-well format, with enough purified recombinant HER2/EGFR/VEGFR2 enzyme, HER2/EGFR/VEGFR2 substrate, ATP and kinase buffer 1 for 100 enzyme reactions. […] […] The quinazolin-4(3H)-ones were diluted in 10% DMSO and 5 μl of the dilution was added to a 50 μl reaction so that the final concentration of DMSO was 1% in all of the reactions. All of the enzymatic reactions were conducted at 30 °C for 40 min. The 50 μl reaction mixture contained 40 mM Tris, pH 7.4, 10 mM MgCl2, 0.1 mg/mL BSA, 1 mM DTT, 10 mM ATP, kinase substrate and the enzyme HER2 / EGFR / VEGFR2. After the enzymatic reaction, 50 μl of Kinase-Glo® MAX luminescence kinase assay solution was added to each reaction and the plates were incubated for 5 min at room temperature. Luminescence signal was measured using a Bio Tek Synergy 2 microplate reader (For detail enzyme assay protocol and the results, please see supplementary data).
Consider `CCOC(=O)CSc1nc2c(F)cc(F)cc2c(=O)n1Cc1ccccc1` [2h, Ethyl 2-((3-benzyl-6,8-difluoro-4-oxo-3,4-dihydroquinazolin-2-yl)thio)acetate], for which the inhibition at 0.01 µM amounted to 13.3%.

The same data set, now with this note: 0.1 µM; one experimental data; read-out: % Inhibition VEGFR-2.
Consider `CCOC(=O)CSc1nc2c(F)cc(F)cc2c(=O)n1Cc1ccccc1` [2h, Ethyl 2-((3-benzyl-6,8-difluoro-4-oxo-3,4-dihydroquinazolin-2-yl)thio)acetate], for which the inhibition at 0.1 µM came to 38.9%.

The same data set, now with this note: 1 µM; one experimental data; read-out: % Inhibition VEGFR-2.
Turning to `CCOC(=O)CSc1nc2c(F)cc(F)cc2c(=O)n1Cc1ccccc1` [2h, Ethyl 2-((3-benzyl-6,8-difluoro-4-oxo-3,4-dihydroquinazolin-2-yl)thio)acetate], the inhibition at 1 µM was 70.8%.

Still in this data set, the particulars now being: 10 µM; one experimental data; read-out: % Inhibition VEGFR-2.
Consider `CCOC(=O)CSc1nc2c(F)cc(F)cc2c(=O)n1Cc1ccccc1` [2h, Ethyl 2-((3-benzyl-6,8-difluoro-4-oxo-3,4-dihydroquinazolin-2-yl)thio)acetate], for which the inhibition at 10 µM was determined as 88%.

The same data set, now with this note: mean ± SD of triplicate.
With `CCOC(=O)CSc1nc2c(F)cc(F)cc2c(=O)n1Cc1ccccc1` [2h, Ethyl 2-((3-benzyl-6,8-difluoro-4-oxo-3,4-dihydroquinazolin-2-yl)thio)acetate], the half-inhibitory concentration (IC50) was determined as 2190 ± 24 nM.

A further data set has as its target T3, HER2 (Homo sapiens, UniProt P04626).
T3 construct: purchased #40721
Put plainly: HER2 kinase assay kit, Kinase-Glo MAX luminescence. It is filed as biochemical. The note with it: 0.01 µM; one experimental data. As to the method:
as §2
For `CCOC(=O)CSc1nc2c(F)cc(F)cc2c(=O)n1Cc1ccccc1` [2h, Ethyl 2-((3-benzyl-6,8-difluoro-4-oxo-3,4-dihydroquinazolin-2-yl)thio)acetate], the inhibition at 0.01 µM worked out at 9.07%.

Still in this data set, the particulars now being: 0.1 µM; one experimental data.
Consider `CCOC(=O)CSc1nc2c(F)cc(F)cc2c(=O)n1Cc1ccccc1` [2h, Ethyl 2-((3-benzyl-6,8-difluoro-4-oxo-3,4-dihydroquinazolin-2-yl)thio)acetate], for which the inhibition at 0.1 µM was determined as 38.9%.

Staying with this data set, now noted: 1 µM; one experimental data.
Turning to `CCOC(=O)CSc1nc2c(F)cc(F)cc2c(=O)n1Cc1ccccc1` [2h, Ethyl 2-((3-benzyl-6,8-difluoro-4-oxo-3,4-dihydroquinazolin-2-yl)thio)acetate], the inhibition at 1 µM is 32.3%.

The data set is the same for the next values; noted with them: 10 µM; one experimental data.
`CCOC(=O)CSc1nc2c(F)cc(F)cc2c(=O)n1Cc1ccccc1` [2h, Ethyl 2-((3-benzyl-6,8-difluoro-4-oxo-3,4-dihydroquinazolin-2-yl)thio)acetate]: the inhibition at 10 µM turned out to be 82.3%.

The data set is the same for the next values; noted with them: mean ± SD of triplicate.
Consider `CCOC(=O)CSc1nc2c(F)cc(F)cc2c(=O)n1Cc1ccccc1` [2h, Ethyl 2-((3-benzyl-6,8-difluoro-4-oxo-3,4-dihydroquinazolin-2-yl)thio)acetate], for which the IC50 is 138 ± 12 nM.

The target in another data set is T1, CDK2/CyclinA2. In words: CDK2 Assay Kit, Kinase-Glo MAX luminescence. The note with it: 0.01 µM; one experimental data. It counts as biochemical. The protocol:
The CDK2 Assay Kit is designed to measure CDK2/CyclinA2 activity for screening and profiling applications, using Kinase-Glo® MAX as a detection reagent. The CDK2 Assay Kit comes in a convenient 96-well format, with enough purified recombinant CDK2/CyclinA2 enzyme, CDK substrate peptide, ATP and kinase assay buffer for 100 enzyme reactions. […] […] The compounds were diluted in 10% DMSO and 5 μl of the dilution was added to a 50 μl reaction so that the final concentration of DMSO was 1% in all of the reactions. All of the enzymatic reactions were conducted at 30 °C for 40 min. The 50 μl reaction mixture contained 40 mM Tris, pH 7.4, 10 mM MgCl2, 0.1 mg/mL BSA, 1 mM DTT, 10 mM ATP, Kinase substrate and the enzyme (CDK2/CyclinA2). After the enzymatic reaction, 50 μl of Kinase-Glo® MAX Luminescence kinase assay solution was added to each reaction and the plates were incubated for 5 min at room temperature. Luminescence signal was measured using a Bio Tek Synergy 2 microplate reader.
Figure S1. Calculation of the IC20 Values of Protein Kinase Enzyme CDK2 for 2f
* All the kinase IC20 (µM) were calculated according to the above equations.
(1 picture or pasted object on this page, not shown here)
For the compound `CCOC(=O)CSc1nc2c(F)cc(F)cc2c(=O)n1Cc1ccccc1` [2h, Ethyl 2-((3-benzyl-6,8-difluoro-4-oxo-3,4-dihydroquinazolin-2-yl)thio)acetate], the inhibition at 0.01 µM was determined as 2.43%.

Staying with this data set, now noted: 0.1 µM; one experimental data.
In the case of `CCOC(=O)CSc1nc2c(F)cc(F)cc2c(=O)n1Cc1ccccc1` [2h, Ethyl 2-((3-benzyl-6,8-difluoro-4-oxo-3,4-dihydroquinazolin-2-yl)thio)acetate], the inhibition at 0.1 µM was found to be 12.5%.

Still in this data set, the particulars now being: 1 µM; one experimental data.
Take `CCOC(=O)CSc1nc2c(F)cc(F)cc2c(=O)n1Cc1ccccc1` [2h, Ethyl 2-((3-benzyl-6,8-difluoro-4-oxo-3,4-dihydroquinazolin-2-yl)thio)acetate]: the inhibition at 1 µM came out at 24.4%.

Still in this data set, the particulars now being: 10 µM; one experimental data.
In the case of `CCOC(=O)CSc1nc2c(F)cc(F)cc2c(=O)n1Cc1ccccc1` [2h, Ethyl 2-((3-benzyl-6,8-difluoro-4-oxo-3,4-dihydroquinazolin-2-yl)thio)acetate], the inhibition at 10 µM came out at 80.2%.

System in a further data set: not given
Experiment: not given
Settings: not given
The compound `CCOC(=O)CSc1nc2c(F)cc(F)cc2c(=O)n1Cc1ccccc1` [2h, Ethyl 2-((3-benzyl-6,8-difluoro-4-oxo-3,4-dihydroquinazolin-2-yl)thio)acetate] had a melting point of 120 to 123 °C.

A further data set has as its system A2780 (human ovary adenocarcinoma) cells. In words: MTT cytotoxicity assay, A2780. The note with it: Homo sapiens, A2780, mean ± SD of triplicate. It is filed as cell-based. The protocol: as §1
As for `CCOC(=O)CSc1nc2c(F)cc(F)cc2c(=O)n1Cc1ccccc1` [2h, Ethyl 2-((3-benzyl-6,8-difluoro-4-oxo-3,4-dihydroquinazolin-2-yl)thio)acetate], the IC50 was determined as 1400 ± 340 nM.

The next data set concerns the target T4, EGFR (Homo sapiens, UniProt P00533).
T4 construct: purchased #40321
In words: EGFR kinase assay kit, Kinase-Glo MAX luminescence. It counts as biochemical. Conditions: 0.01 µM; one experimental data. As to the method: as §2
For `CCOC(=O)CSc1nc2c(F)cc(F)cc2c(=O)n1Cc1ccccc1` [2h, Ethyl 2-((3-benzyl-6,8-difluoro-4-oxo-3,4-dihydroquinazolin-2-yl)thio)acetate], the inhibition at 0.01 µM was 3.71%.

The data set is the same for the next values; noted with them: 0.1 µM; one experimental data.
In the case of `CCOC(=O)CSc1nc2c(F)cc(F)cc2c(=O)n1Cc1ccccc1` [2h, Ethyl 2-((3-benzyl-6,8-difluoro-4-oxo-3,4-dihydroquinazolin-2-yl)thio)acetate], the inhibition at 0.1 µM amounted to 27.5%.

The same data set, now with this note: 1 µM; one experimental data.
`CCOC(=O)CSc1nc2c(F)cc(F)cc2c(=O)n1Cc1ccccc1` [2h, Ethyl 2-((3-benzyl-6,8-difluoro-4-oxo-3,4-dihydroquinazolin-2-yl)thio)acetate]: the inhibition at 1 µM was determined as 21%.

The data set is the same for the next values; noted with them: 10 µM; one experimental data.
For the compound `CCOC(=O)CSc1nc2c(F)cc(F)cc2c(=O)n1Cc1ccccc1` [2h, Ethyl 2-((3-benzyl-6,8-difluoro-4-oxo-3,4-dihydroquinazolin-2-yl)thio)acetate], the inhibition at 10 µM is 77.3%.

Staying with this data set, now noted: mean ± SD of triplicate.
Regarding `CCOC(=O)CSc1nc2c(F)cc(F)cc2c(=O)n1Cc1ccccc1` [2h, Ethyl 2-((3-benzyl-6,8-difluoro-4-oxo-3,4-dihydroquinazolin-2-yl)thio)acetate], the IC50 came out at 102 ± 14 nM.
